This experiment has as its system BDF1 mice, colon carcinoma 38 sc, T/C %. The experiment can be described thus: NCI In Vivo Anticancer Drug Screen. Data for tumor model Colon Carcinoma 38 (subcutaneous) in B6D2F1 (BDF1) mice. To be noted: endpoint: median tumor weight (est.), higher = larger tumour. Summed up: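 Transplantable tumor in mice; compound-treated vs vehicle-dosed controls. Measured survival or tumor size; value = T ÷ C.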

Setting [1] is: dose: 12.5 mg/kg/injection, schedule: Q07DX002 (ip), vehicle: Klucel (hydroxypropylcellulose) (HPC).
Setting [2] is: dose: 100.0 mg/kg/injection, schedule: Q07DX002 (ip), vehicle: Klucel (hydroxypropylcellulose) (HPC).
[3] abbreviates: dose: 200.0 mg/kg/injection, schedule: Q07DX002 (ip), vehicle: Klucel (hydroxypropylcellulose) (HPC).
The mark [4] stands for this setting: dose: 400.0 mg/kg/injection, schedule: Q07DX002 (ip), vehicle: Klucel (hydroxypropylcellulose) (HPC).
The mark [5] stands for this setting: dose: 100.0 mg/kg/injection, schedule: Q07DX002 (ip), vehicle: suspension in saline.

Molecules are shown by their SMILES. Several values for one entry are separate records, joined by “and”; a condition that tells them apart may be missing. Equal values may be shown once. Inconclusive results are not listed.

As for `CC(C)(C)C1CCCCC1`, the T/C runs as follows: under setting [1], 100 % of control; (dose: 25.0 mg/kg/injection, schedule: Q07DX002 (ip), vehicle: Klucel (hydroxypropylcellulose) (HPC)) 124 % of control; under setting [2], 104 % of control; under setting [3], 77 % of control.

Consider `C=C(OP(=O)(OC)OC)Sc1ccccc1C`, for which the T/C is, setting by setting: (dose: 0.18 mg/kg/injection, schedule: Q07DX002 (ip), vehicle: Klucel (hydroxypropylcellulose) (HPC)) 112 % of control; (dose: 0.37 mg/kg/injection, schedule: Q07DX002 (ip), vehicle: Klucel (hydroxypropylcellulose) (HPC)) 59 % of control; (dose: 0.75 mg/kg/injection, schedule: Q07DX002 (ip), vehicle: Klucel (hydroxypropylcellulose) (HPC)) 101 % of control; (dose: 1.5 mg/kg/injection, schedule: Q07DX002 (ip), vehicle: Klucel (hydroxypropylcellulose) (HPC)) 100 % of control; (dose: 1.56 mg/kg/injection, schedule: Q07DX002 (ip), vehicle: Klucel (hydroxypropylcellulose) (HPC)) 122 % of control.

Consider `CCCCCCCCCCCCCCCC(=O)O[C@@]12C[C@@H](C)[C@@]3(O)[C@@H](C=C(CO)C[C@]4(O)C(=O)C(C)=C[C@@H]34)[C@@H]1C2(C)C`, for which the T/C (dose: 0.06 mg/kg/injection, schedule: Q07DX002 (ip), vehicle: saline) is 92 % of control; the T/C (dose: 0.25 mg/kg/injection, schedule: Q07DX002 (ip), vehicle: saline) was 91 % of control; the T/C (dose: 0.5 mg/kg/injection, schedule: Q07DX002 (ip), vehicle: saline) is 101 % of control; the T/C (dose: 1.0 mg/kg/injection, schedule: Q07DX002 (ip), vehicle: saline) is 60 % of control.

For the molecule `Oc1ccc(SCc2ccc(NCc3ccccc3)cc2)cc1`, the T/C is 75 % of control (dose: 12.5 mg/kg/injection, schedule: Q07DX002 (ip), vehicle: DMSO); 82 % of control (dose: 25.0 mg/kg/injection, schedule: Q07DX002 (ip), vehicle: DMSO); 85 % of control (dose: 50.0 mg/kg/injection, schedule: Q07DX002 (ip), vehicle: DMSO); 109 % of control (dose: 100.0 mg/kg/injection, schedule: Q07DX002 (ip), vehicle: DMSO); 82 % of control (dose: 200.0 mg/kg/injection, schedule: Q07DX002 (ip), vehicle: DMSO).

Take `CC(=O)N(C)C`: the T/C is, setting by setting: (dose: 225.0 mg/kg/injection, schedule: Q07DX002 (ip), vehicle: saline) 123 % of control; (dose: 900.0 mg/kg/injection, schedule: Q07DX002 (ip), vehicle: saline) 111 % of control and 100 % of control; (dose: 1800.0 mg/kg/injection, schedule: Q07DX002 (ip), vehicle: saline) 62 % of control and 84 % of control; (dose: 3600.0 mg/kg/injection, schedule: Q07DX002 (ip), vehicle: saline) 46 % of control and 65 % of control.

For the molecule `Cc1cc2nc3[nH]c4ccccc4c3nc2cc1C`, the T/C is, setting by setting: under setting [1], 164 % of control; (dose: 50.0 mg/kg/injection, schedule: Q07DX002 (ip), vehicle: Klucel (hydroxypropylcellulose) (HPC)) 199 % of control; under setting [2], 172 % of control; under setting [3], 220 % of control; under setting [4], 223 % of control.

For `Oc1ccc(O)cc1`, the T/C runs as follows: (dose: 6.25 mg/kg/injection, schedule: Q07DX002 (ip), vehicle: suspension in saline) 80 % of control; (dose: 12.5 mg/kg/injection, schedule: Q07DX002 (ip), vehicle: suspension in saline) 95 % of control; (dose: 25.0 mg/kg/injection, schedule: Q07DX002 (ip), vehicle: suspension in saline) 108 % of control; (dose: 50.0 mg/kg/injection, schedule: Q07DX002 (ip), vehicle: suspension in saline) 94 % of control; under setting [5], 97 % of control.

For `Cc1cc(=O)c2cccc(CC(=O)O)c2o1`, the T/C is 119 % of control under setting [2], 114 % of control under setting [3] and 76 % of control under setting [4].

Take `C#CCN(Cc1ccc2nc(N)[nH]c(=O)c2c1)c1ccc(C(=O)NC(CCC(=O)O)C(=O)O)cc1` (stereo unspecified): the T/C (dose: 50.0 mg/kg/injection, schedule: Q07DX002 (ip), vehicle: sodium bicarbonate) is 60 % of control; the T/C (dose: 100.0 mg/kg/injection, schedule: Q07DX002 (ip), vehicle: sodium bicarbonate) was 70 % of control; the T/C (dose: 200.0 mg/kg/injection, schedule: Q07DX002 (ip), vehicle: sodium bicarbonate) was 49 % of control; the T/C (dose: 400.0 mg/kg/injection, schedule: Q07DX002 (ip), vehicle: sodium bicarbonate) was 51 % of control.

In the case of `COC(=O)C12OCC34C(CC5C(C)C6=CC(=O)OC6=CC5(C)C3C(O)C1O)OC(=O)C(OC(C)=O)C24` (stereo unspecified), the T/C is 86 % of control (dose: 0.25 mg/kg/injection, schedule: Q07DX002 (ip), vehicle: saline + alcohol); 65 % of control (dose: 0.5 mg/kg/injection, schedule: Q07DX002 (ip), vehicle: saline + alcohol); 96 % of control (dose: 1.0 mg/kg/injection, schedule: Q07DX002 (ip), vehicle: saline + alcohol); 105 % of control (dose: 2.0 mg/kg/injection, schedule: Q07DX002 (ip), vehicle: saline + alcohol); 114 % of control (dose: 4.0 mg/kg/injection, schedule: Q07DX002 (ip), vehicle: saline + alcohol).

On to `COc1ccc(C(=O)/C(Br)=C/C(=O)O)cc1`, for which the T/C is, setting by setting: (dose: 4.0 mg/kg/injection, schedule: Q07DX002 (ip), vehicle: saline) 104 % of control; (dose: 8.0 mg/kg/injection, schedule: Q07DX002 (ip), vehicle: saline) 98 % of control; (dose: 16.0 mg/kg/injection, schedule: Q07DX002 (ip), vehicle: saline) 104 % of control; (dose: 32.0 mg/kg/injection, schedule: Q07DX002 (ip), vehicle: saline) 71 % of control.

As to `COC1C(C)OC(OC2CC(C)(O)Cc3cc4c(c(O)c32)C(=O)c2c(O)cc3c(c2C4=O)OC2OC3(C)C(O)C(N(C)C)C2O)C(OC)C1(C)OC` (stereo unspecified), the T/C by setting is: (dose: 0.62 mg/kg/injection, schedule: Q07DX002 (ip), vehicle: other) 53 % of control; (dose: 1.25 mg/kg/injection, schedule: Q07DX002 (ip), vehicle: other) 81 % of control; (dose: 5.0 mg/kg/injection, schedule: Q07DX002 (ip), vehicle: other) 83 % of control; (dose: 10.0 mg/kg/injection, schedule: Q07DX002 (ip), vehicle: other) 89 % of control.

Consider `Nc1nc2nc[nH]c2c(=O)[nH]1`, for which the T/C is 90 % of control under setting [5] and 83 % of control (dose: 200.0 mg/kg/injection, schedule: Q07DX002 (ip), vehicle: suspension in saline).

As for `N=c1ccn2c(n1)OC1C(O)C(CO)OC12` (stereo unspecified), the T/C reads like this: (dose: 25.0 mg/kg/injection, schedule: Q07DX002 (ip), vehicle: saline) 84 % of control; (dose: 50.0 mg/kg/injection, schedule: Q07DX002 (ip), vehicle: saline) 105 % of control; (dose: 50.0 mg/kg/injection, schedule: Q07DX003 (ip), vehicle: suspension in saline) 94 % of control; (dose: 100.0 mg/kg/injection, schedule: Q07DX003 (ip), vehicle: suspension in saline) 73 % of control; (dose: 200.0 mg/kg/injection, schedule: Q07DX003 (ip), vehicle: suspension in saline) 66 % of control; (dose: 400.0 mg/kg/injection, schedule: Q07DX003 (ip), vehicle: suspension in saline) 51 % of control. In addition, the T/C was 20 % of control (dose: 800.0 mg/kg/injection, schedule: Q07DX003 (ip), vehicle: suspension in saline); 31 % of control (dose: 1600.0 mg/kg/injection, schedule: Q07DX002 (ip), vehicle: saline); 19 % of control (dose: 1600.0 mg/kg/injection, schedule: Q07DX003 (ip), vehicle: suspension in saline).

In the case of `CC(C)(O)/C=C/C(=O)[C@](C)(O)[C@H]1[C@H](O)C[C@@]2(C)[C@@H]3CC=C4[C@@H](C[C@H](O)C(=O)C4(C)C)[C@]3(C)C(=O)C[C@]12C`, the T/C runs as follows: (dose: 0.25 mg/kg/injection, schedule: Q07DX002 (ip), vehicle: saline + Tween-80 + alcohol) 95 % of control; (dose: 0.5 mg/kg/injection, schedule: Q07DX002 (ip), vehicle: saline + Tween-80 + alcohol) 106 % of control; (dose: 1.0 mg/kg/injection, schedule: Q07DX002 (ip), vehicle: saline + Tween-80 + alcohol) 65 % of control.
